“Also recorded” adds a separate entry of the source.
How the values were obtained:
[1] = test system: CCI-induced TBI mice; assay: Lesion volume in CCI-induced mice (Cavalieri stereology); assay type: in vivo, mouse; details: for total lesion volume / size of lesion cavity: 21 days post-injury
Method: FIG. 5C is a plot showing lesion size in the experimental conditions. Lesion size was quantitatively measured in control mice, untreated CCI injured mice, NaB treated CCI-mice and NaFO-treated CCI-mice at 21 days post-injury. Statistical analyses were performed with Student's t-test in the injured side of the brain [^ap<0.001 (5.623×10^−7) vs control; ^bp<0.001 (=0.001) vs CCI injury].
FIGS. 10A-10C. Decrease in lesion volume in TBI mice by GTB treatment. […] FIG. 10A. […] FIG. 10C. Lesion volume was quantified in all groups of mice. Statistical analyses were performed with two way ANOVA and expressed as mean±SD to compare the lesion volume between unlesioned and lesioned side of the brain.
The estimation of lesion volume was performed based on the Cavalieri method of unbiased stereology using the StereoInvestigator software (MicroBright Biosciences, USA). Both the ipsilateral and contralateral hemisphere of brain volumes were determined using the Cavalieri estimator with a 1 mm grid spacing 1 mm. Every fourth section was analyzed beginning from a random start point. Lesion volume was estimated by subtracting the volume of the ipsilateral hemisphere from that of the contralateral hemi-sphere. Then the volume of lesion cavity estimated in brain section of untreated mice was compared with lesion volume of brain sections of drug treated mice.

[2] = test system: mice with TBI induced by CCI; assay: Open field behavior in TBI mice; assay type: in vivo, mouse; details: 50 mg/kg/day oral; for overall movements / all open-field parameters (heat map, distance, velocity, center frequency, rearing): 21 day post-injury
Method: The performance of animals in open field test was analyzed as described in earlier studies. Briefly, each animal was allowed to move freely to explore an open field arena designed with a square shaped wooden floor measuring 40×40 cm, with walls 30 cm high for 5 min. A […] (Basler Gen I Cam—Basler acA 1300-60) connected to a Noldus computer system was fixed in top facing-down on the open field arena. Each mouse was placed individually on center of the arena and the performance was monitored by the live video tracking system. The central area was arbitrarily defined as a square of 20×20 cm ([…]).

[3] = test system: CCI-injured mice; assay: Rotarod test in CCI-injured mice; assay type: in vivo, mouse; details: 50 mg/kg/day oral
Method: The forehindlimb motor coordination and balance in animals was observed using the rotarod test as described in earlier studies. Briefly, each mouse was placed on the confined section of the rod and trial was initiated with a smooth increase in speed from 4 rpm to 40 rpm for 5 mins. […] The latency to fall was measured in seconds and used for the analysis. Following the CCI injury, each mouse performed the task three trials during the testing sessions and the average score on these three trials was used as the individual rotarod score. Each trial on the rod was terminated when the mice fell off the rod or held on to the rod by hanging and completed improper revolutions.

[4] = test system: CCI-injured mice; assay: Tail suspension test (depression-like behavior) in CCI-injured mice; assay type: in vivo, mouse; details: 50 mg/kg/day oral
Method: Mice were subjected to the tail suspension test using a methodology as described in earlier studies. The mice were gently hung upside down by the tail using the non-toxic adhesive tape 50 cm above the floor for 6 mins. Immobility time was defined as the period of time during which the mice only hung passively, without any active movements. An increased immobility time is defined as a depression-like behavior.

[5] = test system: CCI-injured mice; assay: Beam runway / beam walking in CCI-injured mice; assay type: in vivo, mouse; details: for gait movement on beam runway (steps, time taken, foot slips): 7 day post-injury
Text: The beam runway was made of smooth wooden material and measured 65 cm length×0.7 cm breadth×4 cm height. A black box with an opening was fixed at one end and an aversive stimulus (bright lamp) at the other end of beam. This test was used to evaluate the complex coordination and balance of mice while traversing the beam and we performed the procedure as described in earlier studies. The mouse was placed on the beam near the light source and the light was turned ‘on’. This makes the animal move into the box to avoid the aversive stimulus, which was then turned off. Six repetitions were performed with a 2 mins resting period inside the box. The parameters measured were the time taken (sec) to reach the box and the number of steps with contralateral limb drag/slips. An error was considered whenever the paw slipping on the beam and the number of slips were counted. The beam walk analysis was performed by an observer blinded to the treatment at 7th and 21st postoperative day.

[6] = test system: CCI-injured mice; assay: Grid runway in CCI-injured mice; assay type: in vivo, mouse; details: for gait movement on grid runway (steps, time taken, foot misplacement): 7 day post-injury
Text: The grid runway (65 cm length×8 cm breadth×1 cm intervals) made of parallel grid bars with interbar intervals of 1 cm apart and grid were kept above the surface on a table during the testing session. The soft padding was positioned under the grid run-way in the event for protection to avoid serious injury, if the animal falls from the grid. Each mouse was allowed to walk freely on grid and the time taken and number of steps to cross the runway was noted. Each successful foot placement on grid was recorded as a step. However, an error was considered whenever the paw slips through the grid or the paw misses a bar and extends downwards through the plane of bars. The locomotor behavior of animal on grid was evaluated by an observer blinded to the treatment on 7th and 21st day after CCI injury.

[7] = test system: TBI mice; assay: Barnes maze test in TBI mice; assay type: in vivo, mouse; details: 50 mg/kg/day oral; for Barnes maze latency (time taken to find the target hole) / Barnes maze number of errors: 21 days post-injury
Method: The Barnes maze test was performed as described in our earlier studies. Briefly, the mice were initially trained for 2 consecutive days followed by examination on day 3. After each training session, maze and escape tunnel were thoroughly cleaned with a mild detergent to avoid instinctive odor avoidance due to mouse's odor from the familiar object. On day 3, a video camera (Basler Gen I Cam—Basler acA 1300-60) connected to a Noldus computer system was placed above the maze and was illuminated with high voltage light that generated enough light and heat to motivate animals to enter into the escape tunnel. The performance was monitored by the video tracking system (Noldus System). Cognitive behavior parameters were examined by measuring latency (duration before all four paws were on the floor of the escape box) and errors (incorrect response before all four paws were on the floor of the escape box).

[8] = test system: TBI mice; assay: T-maze in TBI mice; assay type: in vivo, mouse; details: 21 days post-injury, 50 mg/kg/day oral
Method: Mice were initially habituated in the T-maze for 2 days under food-deprived conditions. Food reward was provided for at least 5 times over a 10 mins period of training. T-maze was cleaned with mild detergent solution between each testing session, so as to minimize the animal's ability to use any olfactory clues. The food-reward side was always associated with a visual cue. Each time the animal consumed food-reward and it was considered as a positive turn.

[9] = test system: CCI-induced TBI mice; assay: Glial activation and iNOS in brain of CCI-induced TBI mice (immunofluorescence, Western blot); details: for activation of astrocytes / astroglial inflammation in vivo / microglial activation in vivo / iNOS / iNOS-positive cells / GFAP-positive astrocytes / Iba1-positive microglia: cortex and hippocampus; for activation of astrocytes / astroglial inflammation in vivo / microglial activation in vivo: 7 days of treatment, 50 mg/kg/day oral; for iNOS / iNOS-positive cells / level of iNOS protein / expression of iNOS (Western blot) / protein level of GFAP (Western blot) / protein level of Iba1 (Western blot): day 7, 50 mg/kg/day oral; for GFAP-positive astrocytes / Iba1-positive microglia: day 7 post-injury, 50 mg/kg/day oral from 24 h after CCI; for level of iNOS protein / expression of iNOS (Western blot) / protein level of GFAP (Western blot) / protein level of Iba1 (Western blot): hippocampus
[10] = 7 day post-injury, 50 mg/kg/day
[11] = 50 mg/kg/day oral, 50 mg/kg/day
[12] = 21 days post-injury, 50 mg/kg/day oral
[13] = 21st day of CCI injury, 50 mg/kg/day oral gavage

Row | SMILES | overall movements / all open-field parameters (heat map, distance, velocity, center frequency, rearing) [2] | immobility time in tail suspension test ([4]; 21 days post-injury) | Barnes maze latency (time taken to find the target hole) [7] | Barnes maze number of errors [7] | T-maze number of negative turns [8] | T-maze number of positive turns [8] | activation of astrocytes / astroglial inflammation in vivo [9] | microglial activation in vivo [9] | iNOS / iNOS-positive cells [9] | GFAP-positive astrocytes [9] | Iba1-positive microglia [9] | level of iNOS protein / expression of iNOS (Western blot) [9] | protein level of GFAP (Western blot) [9] | protein level of Iba1 (Western blot) [9] | also measured
1 | O=C([O-])c1ccccc1.[Na+] [NaB, Sodium benzoate] | significant differences in overall movements were not observed | significant improvement | less latency | fewer errors | lower number of negative turns | higher number of positive turns | attenuates | inhibits | inhibition of iNOS | decrease | decrease | decreases | Decrease and/or normalization | Decrease and/or normalization | total lesion volume / size of lesion cavity ([1]; cresyl violet sections, 50 mg/kg/day oral): significantly reduced; structural-tissue integrity of damaged hippocampus ([1]; oral treatment started 24 h after CCI): restored; general locomotor activity / open-field behavior [2, 10]: significant improvement; also recorded: improves; center frequency ([2]; open field, 7 day post-injury): Functional upgrading was clearly visible; distance traveled ([2]; open field, 7 day post-injury): Functional upgrading was clearly visible; rearing behavior ([2]; open field, 7 day post-injury): Functional upgrading was clearly visible; velocity ([2]; open field, 7 day post-injury): Functional upgrading was clearly visible; latency to fall on rotarod [3, 10]: prolonged latencies; also recorded: significantly improved; latency to fall on rotarod ([3]; 21 day post-injury, 50 mg/kg/day): prolonged latencies; also recorded: significantly improved; immobility time in tail suspension test ([4]; 7 days post-injury, 50 mg/kg/day): significantly less immobility time; also recorded: significant improvement; gait movement on beam runway (steps, time taken, foot slips) [5, 11]: significant improvement; also recorded: significant upgrade; also recorded: improved; beam walking performance [5, 12]: did not display significant protection; gait movement on grid runway (steps, time taken, foot misplacement) [6, 11]: significant improvement; also recorded: significant upgrade; also recorded: improvements; grid runway performance [6, 12]: did not display significant protection; hippocampus-dependent behaviors / cognitive performance ([7]; NOR, Barnes maze and T maze, 21 days): enhanced cognitive performance
2 | O=C(OCC(COC(=O)c1ccccc1)OC(=O)c1ccccc1)c1ccccc1 [GTB, Glyceryl Tribenzoate] | no significant change | significantly less immobility time | less time | less errors | lower number of negative turns | higher number of positive turns | inhibits | decreases | decreased | decrease | reduced | decreased | decrease | reduced | total lesion volume / size of lesion cavity ([1]; H&E-stained sections, 50 mg/kg/day oral gavage): decrease; general locomotor activity / open-field behavior ([2]; 7 day post-injury): significant increase; latency to fall on rotarod ([3]; 7 day post-injury): increase in latency; immobility time in tail suspension test ([4]; 7 days post-injury): significantly less immobility time; beam walking, number of steps [5, 13]: no significant change; beam walking, time taken [5, 13]: no significant change; gait movement on beam runway (steps, time taken, foot slips) ([5]; 50 mg/kg/day oral): improved; grid runway, number of steps [6, 13]: no significant change; gait movement on grid runway (steps, time taken, foot misplacement) ([6]; 50 mg/kg/day oral): improved

Source: patent publication US20250057793A1, “BENZOIC ACID SALTS FOR TREATMENT OF NERVOUS SYSTEM INJURIES AND DISORDERS” (The United States Government as represented by the …, priority 2021, published 2025)
